Values of other authors as cited in US20030083378A1, “Eye drops” (priority 2000, published 2003).

Legend:
leukotrienes = conditions: Japanese Unexamined Patent Publication No. Hei 2-1459
respiratory anaphylaxis = conditions: Japanese Unexamined Patent Publication No. Hei 2-1459

Solubility: slightly soluble
Compound: CCCc1c(SCCCOc2ccc(C(C)=O)c(OCCCC(=O)O)c2CCC)ccc(C(C)=O)c1O [KCA-757, 4-[6-acetyl-3-[3-[(4-acetyl-3-hydroxy-2-propylphenyl)thio]propoxy]-2-propylphenoxy]butyric acid]
Leukotriene antagonist activity (leukotrienes): potent and selective leukotriene antagonist activity
Inhibitory function on respiratory anaphylaxis (respiratory anaphylaxis): inhibitory function on respiratory anaphylaxis
